According to patent US8129163B2, “Gene suitable for alcohol dehydrogenase, vector and transformant” (Kaneka Corporation, priority 2006, dated 2012):
Read-outs that look alike come from different tables or passages of the source.

How the values were obtained:
[1] = test system: RMA; type: biochemical, Candida maltosa IFO 1977 strain; conditions: for Relative activity (%) of RMA after treatment with inhibitor: inhibitor 1 mM, 30° C. for 30 minutes, untreated RMA = 100%; for inhibition of RMA (in words): treatment at 30° C. for 30 minutes, concentrations of Table 6
Procedure: In 1 mM concentration solution or mixture of various compounds, a polypeptide is treated at 30° C. for 30 minutes. […] Concentrations of agents at the time of treatment are illustrated in Table 6.

[2] = test system: enzyme derived from Candida parapsilosis IFO 1396 strain; conditions: cited from earlier work
[3] = test system: RMA
Procedure: Progress of oxidization reaction may be easily evaluated by, at first, preparing a reaction mixture including 2.5 mMNAD^+, a 50 mM target alcohol compound, oxidation activity of which is to be evaluated, and a polypeptide of the present invention in 50 mM tris-HCl buffer (pH 9.0), then allowing the reaction mixture to react at 30° C. and finally observing increase of absorbance at the wavelength of 340 nm, which is accompanied by increase of NADH level. […] Rapid increasing rate of the absorbance reflects high ability of the polypeptide of the present invention to oxidize a target alcohol compound. The oxidizing ability of a polypeptide may be expressed in terms of numerical values. Thus, oxidizing activity 1 U is defined as an enzyme level that catalyzes generation of 1 μmol of NADH per minute.
Physicochemical properties of RMA as obtained in the above manner were studied. Each activity was determined in accordance with a method as described in [Method for evaluating oxidizing ability to an alcohol compound].

[4] = test system: RMA; remark: listed apart in the source
[5] = test system: RMA; type: biochemical, Candida maltosa IFO 1977 strain
[6] = carbonyl compound 1.5 mM, NADH 0.25 mM, pH 6.5, 30° C., acetophenone = 100%

Row | Compound | Relative activity (%) (reducing activity) [4, 6] | further results
1 | O[C@H](CS)[C@H](O)CS (racemic) [Dithiothreitol] |  | Relative activity (%) of RMA after treatment with inhibitor [1]: 92.2%; inhibition of RMA (in words) [1]: did not; inhibition of enzyme activity (in words) [2]: inhibited
2 | CC(O)CC(C)O (stereo not drawn) [2,4-Pentandiol] |  | activity [3]: 34%
3 | CC(=O)c1ccccn1 [2-Acetylpyridine] | 63 | 
4 | CC(=O)c1ccco1 [2-Acetyrfuran] | 8 | 
5 | CCC(C)=O [2-Butanone] | 54 | 
6 | O=C(CCl)c1cccc(Cl)c1 [2-Chloro-1-(3′-cholophenyl)ethanone] |  | Relative activity (%) (reducing activity) ([4]; pH 6.5): 20%
7 | CCCCCC(C)=O [2-Heptanone] | 82 | 
8 | CCCCC(C)=O [2-Hexanone] | 87 | 
9 | CCC(O)C(=O)O (stereo not drawn) [2-Hydroxybutyric acid] |  | activity [3]: 4.9%
10 | CCCCCCC(C)O (stereo not drawn) [2-Octanol] |  | activity [3]: 134%
11 | CCCCCCC(C)=O [2-Octanone] | 95 | 
12 | CCCC(C)O (stereo not drawn) [2-Pentanol] |  | activity [3]: 183%
13 | CCCC(C)=O [2-Pentanone] | 141 | 
14 | CC(C=O)c1ccccc1 (stereo not drawn) [2-Phenypropionaldehyde] | 37 | 
15 | CC(C)O [2-Propanol] |  | activity [3]: 66%
16 | O=Cc1ccccn1 [2-Pyridinecarbaldehyde] | 11 | 
17 | CC(=O)CC(=O)Nc1cc(Cl)ccc1Cl [2′,5′-Dichloro acetoacetanilide] | 34 | 
18 | CC(=O)c1cccnc1 [3-Acetylpyridine] | 19 | 
19 | CC(=O)C(Cl)C(C)=O [3-Chloro-2,4-pentadione] | 43 | 
20 | CCCCCC(=O)CC [3-Octanone] | 3 | 
21 | CCC(O)CC [3-Pentanol] |  | activity [3]: 40%
22 | O=CCCc1ccccc1 [3-Phenypropionaldehyde] | 112 | 
23 | CC(=O)c1ccncc1 [4-Acetylpyridine] | 83 | 
24 | CC(=O)CC(C)C [4-Methyl-2-pentanone] | 70 | 

Row | Compound | Relative activity (%) (reducing activity) [4, 6] | further results
25 | O=Cc1ccncc1 [4-Pyridinecarbaldehyde] | 5 | 
26 | CC(=O)CC(=O)Nc1ccc(Cl)cc1 [4′-Chroloacetoacetanilide] | 4 | 
27 | CC(=O)c1cc2ccoc2cn1 [5-Acetylfuro[2.3-c]pyridine] | 63 | 
28 | C[C@@H](O)C[C@@H](C)O [(2R,4R)-2,4-Pentandiol] |  | activity [3]: 0.5%
29 | C[C@@H](O)CO [(R)-1,2-Propandiol] |  | activity [3]: 0.7%
30 | C[C@@H](O)CCO [(R)-1,3-Butandiol] |  | activity [3]: 1.3%
31 | C[C@H](O)CO [(S)-1,2-propandiol] |  | activity [3]: 0.7%
32 | C[C@H](O)CCO [(S)-1,3-Butandiol] |  | activity [3]: 9.5%
33 | C[C@H](O)CN [(S)-1-Amino-2-propanol] |  | activity [3]: 2%
34 | C[C@H](O)c1ccccc1 [(S)-1-Phenylethanol] |  | activity [3]: 307%
35 | CC(=O)CC(C)=O [Acethylacetone] | 19 | 
36 | CC(=O)CC(N)=O [Acetoacetamide] | 10 | 
37 | CC(=O)CC(=O)Nc1ccccc1 [Acetoacetoanilide] | 1 | 
38 | CC(C)=O [Acetone] | 28 | 
39 | CC(=O)c1ccccc1 [Acetophenone] | 100 | 
40 | CC(=O)c1cnccn1 [Acetypyrazine] | 76 | 
41 | O=Cc1ccccc1 [Benzaldehyde] | 29 | 
42 | CC(=O)CC(=O)OCc1ccccc1 [Benzyl acetoacetate] | 115 | 
43 | CC(=O)CCc1ccccc1 [Benzylacetone] | 33 | 
44 | C/C=C/C(=O)O [Crotonic acid] |  | Relative activity (%) of RMA after treatment with inhibitor ([5]; inhibitor 50 mM, 30° C. for 30 minutes, untreated RMA = 100%): 10.4%
45 | O=S(=O)([O-])[O-].[Cu+2] [CuSO4, copper sulfate] |  | Relative activity (%) of RMA after treatment with inhibitor [1]: 28.5%; inhibition of RMA (in words) [1]: inhibited
46 | OC1CCCCC1 [Cyclohexanol] |  | activity [3]: 30%
47 | O=C1CCCC1 [Cyclopentanone] | 10 | 
48 | CCOC(=O)C(Cl)C(C)=O (stereo not drawn) [Ethyl 2-chloroacetoacetate] | 26 | 

Row | Compound | Relative activity (%) (reducing activity) [4, 6] | further results
49 | CCOC(=O)CC(C)=O [Ethyl 3-oxobutanoate] | 93 | 
50 | CCCC(=O)CC(=O)OCC [Ethyl 3-oxohexanate] | 2 | 
51 | CCOC(=O)c1ccc(C(C)=O)cc1 [Ethyl 4-acetylbenzoate] | 70 | 
52 | CCOC(=O)CC(=O)CN=[N+]=[N-] [Ethyl 4-azideacetoacetate] | 21 | 
53 | CCOC(=O)CC(=O)COCc1ccccc1 [Ethyl 4-benzyloxyacetoacetate] | 10 | 
54 | CCOC(=O)CC(=O)CCl [Ethyl 4-chloroacetoacetate] | 52 | 
55 | CCOC(=O)C(C)=O [Ethyl pyruvate] | 87 | 
56 | O=CCCCC=O [Glutaraldehyde] | 9 | 
57 | [Cl][Hg][Cl] [HgCl2, mercury chloride] |  | Relative activity (%) of RMA after treatment with inhibitor [1]: 0.0%; inhibition of RMA (in words) [1]: inhibited
58 | O=C(O)CI [Iodoacetic acid] |  | Relative activity (%) of RMA after treatment with inhibitor [5]: 78.9%
59 | CO [Methanol] |  | activity [3]: 0.6%
60 | CCCCCCCCC(=O)C(=O)OC [Methyl 2-oxodecanate] | 2 | 
61 | COC(=O)CC(=O)CCl [Methyl 4-chloroacetoacetate] | 35 | 
62 | COC(=O)CC(C)=O [Methyl acetoacetate] | 66 | 
63 | CC(=O)C(C)C [Methyl iso-propyl ketone] | 4 | 
64 | COC(=O)C(C)=O [Methyl pyruvate] | 71 | 
65 | CC(=O)CC(=O)Nc1ccc(C)cc1 [N-Acetoacetyl-p-toluidine] | 2 | 
66 | CCN1C(=O)C=CC1=O [N-Ethylmaleimide] |  | Relative activity (%) of RMA after treatment with inhibitor [1]: 94.7%
67 | NO [NH2OH] |  | Relative activity (%) of RMA after treatment with inhibitor ([5]; inhibitor 0.01 mM, 30° C. for 30 minutes, untreated RMA = 100%): 96.1%
68 | O=S(=O)(F)Cc1ccccc1 [Phenylmethanesulfonyl fluoride] |  | Relative activity (%) of RMA after treatment with inhibitor [1]: 96.0%
69 | CCC=O [Propionaldehyde] | 39 | 
70 | O=C1CCSC1 [Tetrahydrothiophen-3-one] | 4 | 
71 | O=S(=O)([O-])[O-].[Zn+2] [ZnSO4, zinc sulfate] |  | Relative activity (%) of RMA after treatment with inhibitor [1]: 23.1%; inhibition of RMA (in words) [1]: inhibited
72 | CC(=O)C(C)=O [diacethyl] | 24 | 

Row | Compound | Relative activity (%) (reducing activity) [4, 6] | further results
73 | CC(=O)c1cccc(Cl)c1 [m-Chloroacetophenone] | 130 | 
74 | CC(=O)c1cccc(O)c1 [m-Hydroxyacetophenone] | 12 | 
75 | COc1cccc(C(C)=O)c1 [m-Methoxyacetophenone] | 111 | 
76 | CC(=O)c1cccc([N+](=O)[O-])c1 [m-Nitroacetophenone] | 89 | 
77 | O=Cc1cccc([N+](=O)[O-])c1 [m-Nitrobenzaldehyde] | 28 | 
78 | CCCC=O [n-Butyraldehyde] | 117 | 
79 | CCCCCC=O [n-Hexylaldehyde] | 117 | 
80 | CCCCCCCCOC(=O)CC(=O)CCl [n-Octyl 4-chloroacetoacetate] | 24 | 
81 | COc1ccccc1NC(=O)CC(C)=O [o-Acetoacetanisidide] | 35 | 
82 | CC(=O)c1ccccc1Cl [o-Chloroacetophenone] | 2 | 
83 | CC(=O)c1ccccc1O [o-Hydroxyacetophenone] | 9 | 
84 | COc1ccccc1C(C)=O [o-Methoxyacetophenone] | 10 | 
85 | O=Cc1ccccc1[N+](=O)[O-] [o-Nitrobenzeldehyde] | 29 | 
86 | c1cnc2c(c1)ccc1cccnc12 [o-Phenanthroline] |  | Relative activity (%) of RMA after treatment with inhibitor [1]: 0.0%; inhibition of RMA (in words) [1]: inhibited
87 | CC(=O)c1ccc(Cl)cc1 [p-Chloroacetohenone] | 130 | 
88 | O=C(O)c1cc[c]([Hg][Cl])cc1 [p-Chloromercuribenzoate] |  | Relative activity (%) of RMA after treatment with inhibitor ([5]; inhibitor 0.05 mM, 30° C. for 30 minutes, untreated RMA = 100%): 96.3%
89 | CC(=O)c1ccc(F)cc1 [p-Fluoroacetophenone] | 110 | 
90 | O=C(O)c1ccc(O)cc1 [p-Hydroxybenzoic acid] |  | Relative activity (%) of RMA after treatment with inhibitor [1]: 91.5%
91 | CC(=O)c1ccc(C)cc1 [p-Methylacetophenone] | 91 | 
92 | O=Cc1ccc([N+](=O)[O-])cc1 [p-Nitrobenzaldehyde] | 27 | 
93 | CC(=O)CC(=O)OC(C)(C)C [tert-Butylacetoacetate] | 88 | 
94 | OCCS [β-Mercaptoethanol] |  | Relative activity (%) of RMA after treatment with inhibitor [1]: 95.4%; inhibition of RMA (in words) [1]: did not; inhibition of enzyme activity (in words) [2]: inhibited
